These results are taken from ChEMBL document CHEMBL4229543, “Squaramides as novel class I and IIB histone deacetylase inhibitors for topical treatment of cutaneous t-cell lymphoma” (Bioorg Med Chem Lett, 2018).

One experiment concerns the target Histone deacetylase 2 (Homo sapiens, UniProt Q92769). Kind of experiment: Inhibition of human recombinant HDAC2 using fluorogenic HDAC substrate after 15 mins by fluorimetrc method.
The target in another experiment is T1, Histone deacetylase 7 (Homo sapiens, UniProt Q8WUI4).
T1 sequence (Q8WUI4 whole entry): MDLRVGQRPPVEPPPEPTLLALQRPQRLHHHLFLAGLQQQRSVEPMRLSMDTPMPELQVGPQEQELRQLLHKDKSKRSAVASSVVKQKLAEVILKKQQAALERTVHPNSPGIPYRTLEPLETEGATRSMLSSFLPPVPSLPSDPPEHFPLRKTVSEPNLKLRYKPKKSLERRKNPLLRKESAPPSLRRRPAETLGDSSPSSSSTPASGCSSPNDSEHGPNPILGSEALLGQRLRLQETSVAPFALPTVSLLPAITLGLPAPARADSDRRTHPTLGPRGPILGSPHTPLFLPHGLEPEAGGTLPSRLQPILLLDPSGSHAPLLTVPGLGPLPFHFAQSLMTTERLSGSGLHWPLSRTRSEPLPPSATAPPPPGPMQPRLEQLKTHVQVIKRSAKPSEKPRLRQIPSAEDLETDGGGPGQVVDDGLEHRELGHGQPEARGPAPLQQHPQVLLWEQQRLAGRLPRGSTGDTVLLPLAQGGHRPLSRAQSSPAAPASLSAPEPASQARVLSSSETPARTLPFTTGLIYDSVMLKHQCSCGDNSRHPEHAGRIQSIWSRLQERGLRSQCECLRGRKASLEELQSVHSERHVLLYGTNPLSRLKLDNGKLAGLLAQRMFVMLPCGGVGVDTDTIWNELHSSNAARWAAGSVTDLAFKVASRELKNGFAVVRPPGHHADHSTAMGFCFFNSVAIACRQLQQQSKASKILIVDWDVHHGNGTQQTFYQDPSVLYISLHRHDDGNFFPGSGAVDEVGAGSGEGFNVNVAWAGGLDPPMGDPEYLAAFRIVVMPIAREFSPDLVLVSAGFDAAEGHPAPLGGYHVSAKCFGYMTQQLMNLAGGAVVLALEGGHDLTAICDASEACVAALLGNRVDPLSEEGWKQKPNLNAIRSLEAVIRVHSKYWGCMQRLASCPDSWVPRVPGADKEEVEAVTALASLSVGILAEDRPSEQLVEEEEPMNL
The experiment is described as follows: Inhibition of human recombinant HDAC7 using fluorogenic HDAC substrate class 2a after 45 mins by fluorimetrc method.

For the next experiment, the target named is Histone deacetylase 3 (Homo sapiens, UniProt O15379). The experiment is described as follows: Inhibition of human recombinant HDAC3 using fluorogenic HDAC substrate after 10 mins by […] method.
Sequence of Histone deacetylase 3 (O15379 whole entry): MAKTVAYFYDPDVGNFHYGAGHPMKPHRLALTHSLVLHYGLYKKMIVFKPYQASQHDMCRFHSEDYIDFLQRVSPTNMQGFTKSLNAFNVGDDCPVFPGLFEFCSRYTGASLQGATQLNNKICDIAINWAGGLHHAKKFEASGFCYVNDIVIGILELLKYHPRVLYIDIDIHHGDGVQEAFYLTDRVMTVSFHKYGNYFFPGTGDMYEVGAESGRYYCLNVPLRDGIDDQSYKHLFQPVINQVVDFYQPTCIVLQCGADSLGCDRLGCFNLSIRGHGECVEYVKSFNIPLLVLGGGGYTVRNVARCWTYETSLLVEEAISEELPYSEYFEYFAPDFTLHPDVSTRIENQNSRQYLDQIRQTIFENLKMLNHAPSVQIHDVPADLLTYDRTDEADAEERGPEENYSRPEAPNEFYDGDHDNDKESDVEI
Another experiment deals with HuT78. The experiment is described as follows: Pro-apoptotic activity in human HUT78 cells after 18 hrs by caspase-Glo 3/7 assay. The class given is functional, cell-based. As to conditions: HuT78, 18 h.
For experiment [1], the target named is T2, NAD-dependent protein deacetylase sirtuin-2 (Homo sapiens, UniProt Q8IXJ6).
T2 sequence (Q8IXJ6 whole entry): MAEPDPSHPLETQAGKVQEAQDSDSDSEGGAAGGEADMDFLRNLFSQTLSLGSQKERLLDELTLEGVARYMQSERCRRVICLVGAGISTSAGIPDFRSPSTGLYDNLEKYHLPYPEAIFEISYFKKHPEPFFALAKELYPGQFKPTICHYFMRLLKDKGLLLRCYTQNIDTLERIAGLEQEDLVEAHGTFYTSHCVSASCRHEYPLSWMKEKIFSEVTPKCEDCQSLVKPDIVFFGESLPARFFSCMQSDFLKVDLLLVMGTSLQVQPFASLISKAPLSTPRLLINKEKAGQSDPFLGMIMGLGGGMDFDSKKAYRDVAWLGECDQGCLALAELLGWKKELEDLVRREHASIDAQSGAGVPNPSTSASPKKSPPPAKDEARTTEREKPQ
The experiment is described as follows: Inhibition of human recombinant SIRT2 using fluoro-lysine sirtuin 2 deacetylase substrate after 60 mins by fluorimetrc method.

Experiment [2] concerns the target T3, NAD-dependent protein deacetylase sirtuin-7 (Homo sapiens, UniProt Q9NRC8).
T3 sequence (Q9NRC8 whole entry): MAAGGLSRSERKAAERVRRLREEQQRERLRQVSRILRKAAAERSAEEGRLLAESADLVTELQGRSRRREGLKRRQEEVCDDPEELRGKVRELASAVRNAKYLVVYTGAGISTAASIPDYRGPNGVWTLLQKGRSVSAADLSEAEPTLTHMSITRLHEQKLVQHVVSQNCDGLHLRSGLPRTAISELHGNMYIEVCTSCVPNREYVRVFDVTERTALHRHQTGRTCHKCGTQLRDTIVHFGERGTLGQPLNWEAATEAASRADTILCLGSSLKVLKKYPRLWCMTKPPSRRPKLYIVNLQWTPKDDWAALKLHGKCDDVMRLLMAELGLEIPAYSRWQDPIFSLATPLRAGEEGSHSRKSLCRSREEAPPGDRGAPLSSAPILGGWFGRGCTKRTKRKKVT
Kind of experiment: Inhibition of SIRT7 (unknown origin).

The target of experiment [3] is T4, Polyamine deacetylase HDAC10 (Homo sapiens, UniProt Q969S8).
T4 sequence (Q969S8 whole entry): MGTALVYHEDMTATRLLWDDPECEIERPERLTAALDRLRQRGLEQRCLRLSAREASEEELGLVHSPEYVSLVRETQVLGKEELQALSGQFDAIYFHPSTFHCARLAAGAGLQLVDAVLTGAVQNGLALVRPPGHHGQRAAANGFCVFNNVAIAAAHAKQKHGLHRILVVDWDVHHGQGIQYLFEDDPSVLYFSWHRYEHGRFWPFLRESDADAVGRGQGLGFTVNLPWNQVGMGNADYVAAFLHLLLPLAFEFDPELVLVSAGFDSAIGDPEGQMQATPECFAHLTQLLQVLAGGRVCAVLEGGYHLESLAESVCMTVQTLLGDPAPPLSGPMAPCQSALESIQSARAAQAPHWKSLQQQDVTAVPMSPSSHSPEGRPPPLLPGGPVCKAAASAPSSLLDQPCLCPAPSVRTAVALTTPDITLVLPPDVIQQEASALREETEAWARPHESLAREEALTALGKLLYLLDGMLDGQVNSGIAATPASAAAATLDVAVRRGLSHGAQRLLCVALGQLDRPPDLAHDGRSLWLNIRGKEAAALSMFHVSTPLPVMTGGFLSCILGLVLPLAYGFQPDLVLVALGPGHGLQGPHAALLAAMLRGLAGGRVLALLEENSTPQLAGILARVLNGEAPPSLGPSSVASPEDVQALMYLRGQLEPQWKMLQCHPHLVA
Kind of experiment: Inhibition of human recombinant HDAC10 using fluorogenic HDAC substrate after 45 mins by fluorimetrc method.

Another experiment deals with Histone deacetylase 5 (Homo sapiens, UniProt Q9UQL6). Kind of experiment: Inhibition of human recombinant HDAC5 using fluorogenic HDAC substrate class 2a after 30 mins by fluorimetrc method.
Sequence of Histone deacetylase 5 (Q9UQL6 whole entry): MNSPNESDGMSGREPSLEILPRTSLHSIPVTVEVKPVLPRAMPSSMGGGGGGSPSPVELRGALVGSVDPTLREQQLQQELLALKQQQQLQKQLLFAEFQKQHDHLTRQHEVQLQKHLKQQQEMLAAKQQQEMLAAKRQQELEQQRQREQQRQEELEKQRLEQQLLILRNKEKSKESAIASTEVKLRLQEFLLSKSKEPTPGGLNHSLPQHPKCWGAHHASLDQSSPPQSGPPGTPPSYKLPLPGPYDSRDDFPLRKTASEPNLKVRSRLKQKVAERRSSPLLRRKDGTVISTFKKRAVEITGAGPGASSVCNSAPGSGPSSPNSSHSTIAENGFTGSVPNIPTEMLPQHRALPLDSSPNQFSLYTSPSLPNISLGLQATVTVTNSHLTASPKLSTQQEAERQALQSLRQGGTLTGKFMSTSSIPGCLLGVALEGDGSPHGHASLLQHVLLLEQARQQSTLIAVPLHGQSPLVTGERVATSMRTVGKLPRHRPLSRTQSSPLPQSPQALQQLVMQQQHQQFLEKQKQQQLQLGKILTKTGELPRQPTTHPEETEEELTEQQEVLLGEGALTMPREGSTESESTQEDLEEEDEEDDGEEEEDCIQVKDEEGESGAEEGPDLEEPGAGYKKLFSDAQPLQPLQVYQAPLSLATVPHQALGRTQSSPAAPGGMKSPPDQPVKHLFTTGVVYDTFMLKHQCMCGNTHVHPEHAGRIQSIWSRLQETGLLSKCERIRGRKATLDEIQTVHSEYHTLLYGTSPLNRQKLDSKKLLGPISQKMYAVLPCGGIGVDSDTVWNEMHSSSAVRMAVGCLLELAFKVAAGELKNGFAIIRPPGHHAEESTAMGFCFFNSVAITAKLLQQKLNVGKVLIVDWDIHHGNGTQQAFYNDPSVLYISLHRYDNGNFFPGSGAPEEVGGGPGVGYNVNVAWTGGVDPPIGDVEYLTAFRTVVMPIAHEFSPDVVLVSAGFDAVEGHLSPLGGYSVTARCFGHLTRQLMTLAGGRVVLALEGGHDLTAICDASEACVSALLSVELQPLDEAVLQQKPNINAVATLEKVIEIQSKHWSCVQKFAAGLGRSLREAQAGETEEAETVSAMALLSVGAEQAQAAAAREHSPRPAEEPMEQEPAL

The structures appear in SMILES notation.

Sequence of Histone deacetylase 2 (Q92769 whole entry): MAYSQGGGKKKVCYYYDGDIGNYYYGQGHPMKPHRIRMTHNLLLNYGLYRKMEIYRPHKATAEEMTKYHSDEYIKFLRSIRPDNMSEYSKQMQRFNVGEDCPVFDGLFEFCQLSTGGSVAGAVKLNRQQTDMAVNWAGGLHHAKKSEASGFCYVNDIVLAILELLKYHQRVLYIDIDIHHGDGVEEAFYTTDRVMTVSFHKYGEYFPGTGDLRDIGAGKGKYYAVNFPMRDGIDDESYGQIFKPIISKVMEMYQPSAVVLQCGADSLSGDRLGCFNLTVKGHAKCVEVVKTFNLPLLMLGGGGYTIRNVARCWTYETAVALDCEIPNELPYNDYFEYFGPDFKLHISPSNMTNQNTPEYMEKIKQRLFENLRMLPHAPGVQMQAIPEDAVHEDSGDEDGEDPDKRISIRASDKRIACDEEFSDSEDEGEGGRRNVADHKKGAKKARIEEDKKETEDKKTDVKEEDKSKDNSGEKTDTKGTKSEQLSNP

By Ki is commonly meant the dissociation constant of the complex between target and ligand, obtained from inhibition or displacement. As usually defined, the EC50 is the concentration at which the effect is half-maximal. Lower therefore signals an effect from little substance. As for `COc1ccc(Nc2c(NCCCCCC(=O)NO)c(=O)c2=O)cc1`, the Ki on Histone deacetylase 2 is 3.1 nM; at Histone deacetylase 7, greater than 10000 nM; at Histone deacetylase 3, 0.8 nM; in experiment [1], greater than 10000 nM; in experiment [2], greater than 10000 nM; in experiment [3], 1.2 nM. The Ki on Histone deacetylase 5 was 1000 nM. Further, the response with HuT78 was half-maximal at 4.9 nM (EC50).
Consider `CC(C)(CCCCC(=O)NO)Nc1c(Nc2ccc(C(F)(F)F)cc2)c(=O)c1=O`, for which the inhibitory constant (Ki) on Histone deacetylase 2 was 23 nM; on Histone deacetylase 7 it was 1700 nM; on Histone deacetylase 3, 12 nM; in experiment [1], greater than 10000 nM; in experiment [2] it was greater than 10000 nM; in experiment [3] it was 3 nM. The Ki at Histone deacetylase 5 stood at 360 nM. This compound also yielded an EC50 in the experiment on HuT78 of 7.3 nM.
Regarding `CC(Nc1c(NCCCCCC(=O)NO)c(=O)c1=O)C12CC3CC(CC(C3)C1)C2` (centres undefined), the Ki on Histone deacetylase 2 is 130 nM; at Histone deacetylase 7 it was greater than 10000 nM; on Histone deacetylase 3, 58 nM; in experiment [1], greater than 10000 nM; in experiment [2] it was greater than 10000 nM; in experiment [3], 50 nM. Moreover, the Ki on Histone deacetylase 5 stood at 4200 nM. This compound displayed an EC50 in the experiment with HuT78 of 98 nM.
